Active and inactive are the calls of the source.
Columns and labels:
Assay type in all cases: functional, organism-based
Conditions in all cases: time 6.0 weeks
Mus musculus [1] = test: Upregulation of Acaa1a gene transcriptional level in HFD-induced C57BL/6J mouse model of NAFL at 15 mg/kg/day, ip administered from week 7 to week 12 by qRT-PCR analysis
Mus musculus [2] = test: Upregulation of long-chain specific acyl-CoA dehydrogenase gene transcriptional level in HFD-induced C57BL/6J mouse model of NAFL at 15 mg/kg/day, ip administered from week 7 to week 12 by qRT-PCR analysis
Mus musculus [3] = test: Upregulation of Medium-chain specific acyl-CoA dehydrogenase gene transcriptional level in HFD-induced C57BL/6J mouse model of NAFL at 15 mg/kg/day, ip administered from week 7 to week 12 by qRT-PCR analysis
Mus musculus [4] = test: Upregulation of Acox1 gene transcriptional level in HFD-induced C57BL/6J mouse model of NAFL at 15 mg/kg/day, ip administered from week 7 to week 12 by qRT-PCR analysis
Mus musculus [5] = test: Upregulation of Acox2 gene transcriptional level in HFD-induced C57BL/6J mouse model of NAFL at 15 mg/kg/day, ip administered from week 7 to week 12 by qRT-PCR analysis
Mus musculus [6] = test: Upregulation of peroxisomal bifunctional enzyme gene transcriptional level in HFD-induced C57BL/6J mouse model of NAFL at 15 mg/kg/day, ip administered from week 7 to week 12 by qRT-PCR analysis
Mus musculus [7] = test: Upregulation of Cyp4a10 gene transcriptional level in HFD-induced C57BL/6J mouse model of NAFL at 15 mg/kg/day, ip administered from week 7 to week 12 by qRT-PCR analysis
Mus musculus [8] = test: Upregulation of Cyp4a14 gene transcriptional level in HFD-induced C57BL/6J mouse model of NAFL at 15 mg/kg/day, ip administered from week 7 to week 12 by qRT-PCR analysis
Mus musculus [9] = test: Upregulation of Cpt1a gene transcriptional level in HFD-induced C57BL/6J mouse model of NAFL at 15 mg/kg/day, ip administered from week 7 to week 12 by qRT-PCR analysis
Mus musculus [10] = test: Upregulation of Cpt1b gene transcriptional level in HFD-induced C57BL/6J mouse model of NAFL at 15 mg/kg/day, ip administered from week 7 to week 12 by qRT-PCR analysis
Mus musculus [11] = test: Upregulation of Cpt1c gene transcriptional level in HFD-induced C57BL/6J mouse model of NAFL at 15 mg/kg/day, ip administered from week 7 to week 12 by qRT-PCR analysis

Measured: Activity

CC(C)c1c(C(=O)Nc2ccccc2)c(-c2ccccc2)c(-c2ccc(F)cc2)n1CC[C@@H](O)C[C@@H](O)CC(=O)O
active: all assays above
